This is an account of results in patent US6362183B1, “Aromatic sulfonyl alpha-hydroxy hydroxamic acid compounds” (G. D. Searle & Company, priority 1997, dated 2002).

One assay concerns the target MMP-8 (Homo sapiens, UniProt P22894). Kind of assay: In vitro metalloprotease inhibition, fluorogenic peptide assay. The assay is classed as biochemical. As to conditions: MCA peptide substrate 4 μM, room temperature, pH 7.5. The protocol:
(§1) Briefly, 4-aminophenylmercuric acetate (APMA) or trypsin activated MMPs were incubated with various concentrations of the inhibitor compound at room temperature for 5 minutes.
(§2) MCA-ProLeuGlyLeuDpaAlaArgNH^2, wherein MCA is methoxycoumarin and Dpa is 3-(2,4-dinitrophenyl)-L-2,3-diaminopropionyl alanine.
(§3) The buffer used for assays contained 100 mM Tris-HCl, 100 mM NaCl, 10 mM CaCl2 and 0.05 percent polyethyleneglycol (23) lauryl ether at a pH value of 7.5.

The target of a further assay is MMP-9 (Homo sapiens, UniProt P14780). The description is as above. The format is biochemical. As to conditions: MCA peptide substrate 4 μM, room temperature, pH 7.5. How it is done: as §1, §2, §3
Sequence of MMP-9 (P14780 107-707 limits assumed, species assumed): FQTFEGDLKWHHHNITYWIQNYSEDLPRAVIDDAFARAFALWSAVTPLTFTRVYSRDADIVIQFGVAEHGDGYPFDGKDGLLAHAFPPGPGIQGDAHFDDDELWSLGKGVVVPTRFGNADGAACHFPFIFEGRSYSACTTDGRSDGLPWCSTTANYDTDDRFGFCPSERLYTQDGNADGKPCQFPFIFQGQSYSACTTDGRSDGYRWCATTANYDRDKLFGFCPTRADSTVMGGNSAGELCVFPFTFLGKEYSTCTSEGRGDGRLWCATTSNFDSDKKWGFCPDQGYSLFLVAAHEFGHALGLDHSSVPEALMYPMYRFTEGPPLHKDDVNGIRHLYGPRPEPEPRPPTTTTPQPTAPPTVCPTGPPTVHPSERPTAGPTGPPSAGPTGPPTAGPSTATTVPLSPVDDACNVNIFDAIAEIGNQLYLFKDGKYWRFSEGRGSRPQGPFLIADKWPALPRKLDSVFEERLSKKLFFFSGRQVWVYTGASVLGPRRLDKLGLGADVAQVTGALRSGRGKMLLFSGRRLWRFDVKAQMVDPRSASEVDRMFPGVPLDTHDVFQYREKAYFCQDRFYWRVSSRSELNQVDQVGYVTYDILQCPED
The target in another assay is T1, MMP-2 (Homo sapiens, UniProt P08253).
T1 sequence (P08253 110-660): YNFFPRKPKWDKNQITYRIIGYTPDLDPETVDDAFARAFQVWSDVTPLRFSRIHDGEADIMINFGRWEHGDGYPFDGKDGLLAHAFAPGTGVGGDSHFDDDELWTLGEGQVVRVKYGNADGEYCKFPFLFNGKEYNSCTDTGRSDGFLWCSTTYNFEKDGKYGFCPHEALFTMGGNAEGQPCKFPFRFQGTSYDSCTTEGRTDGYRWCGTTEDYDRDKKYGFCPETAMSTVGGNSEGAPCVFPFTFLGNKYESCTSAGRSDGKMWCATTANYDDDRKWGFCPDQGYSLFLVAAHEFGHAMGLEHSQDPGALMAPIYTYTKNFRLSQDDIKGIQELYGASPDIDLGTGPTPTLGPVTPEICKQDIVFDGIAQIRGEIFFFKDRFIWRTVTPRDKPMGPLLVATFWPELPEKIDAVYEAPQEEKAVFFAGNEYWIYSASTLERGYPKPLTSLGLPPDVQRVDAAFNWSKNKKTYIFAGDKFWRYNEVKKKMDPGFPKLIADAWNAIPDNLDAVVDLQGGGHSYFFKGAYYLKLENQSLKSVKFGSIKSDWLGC
The description is as above. The assay is classed as biochemical. As to conditions: MCA peptide substrate 4 μM, room temperature, pH 7.5. How it is done:
as §1, §2, §3

The target of a further assay is MMP-3 (Homo sapiens, UniProt P08254). Described as above. The assay is classed as biochemical. As to conditions: MCA peptide substrate 4 μM, room temperature, pH 7.5. How it is done:
as §1, §2, §3

Another assay concerns the target T2, recombinant human MMP-1 (Homo sapiens, UniProt P03956).
T2 construct: made in house; host or cells: transfected HT-1080 cells
T2 sequence (P03956 100-469): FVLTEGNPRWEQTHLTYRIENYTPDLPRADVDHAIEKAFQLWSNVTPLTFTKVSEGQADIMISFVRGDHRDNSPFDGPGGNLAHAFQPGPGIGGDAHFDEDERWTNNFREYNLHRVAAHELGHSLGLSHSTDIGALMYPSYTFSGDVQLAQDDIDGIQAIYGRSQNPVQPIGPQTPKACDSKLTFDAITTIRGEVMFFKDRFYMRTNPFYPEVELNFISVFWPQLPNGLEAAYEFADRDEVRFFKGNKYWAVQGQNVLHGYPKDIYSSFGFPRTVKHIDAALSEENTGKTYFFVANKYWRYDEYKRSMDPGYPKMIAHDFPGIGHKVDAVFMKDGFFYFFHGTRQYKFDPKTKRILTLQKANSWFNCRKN
Described as above. As to conditions: APMA-activated enzyme, MCA peptide substrate 4 μM, room temperature, pH 7.5. The assay is classed as biochemical. How it is done: as §1
(§4) More specifically, recombinant human MMP-13 and MMP-1 enzymes were prepared in laboratories of the assignee. MMP-13 was expressed in baculovirus as a proenzyme, and purified first over a heparin agarose column and then over a chelating zinc chloride column. The proenzyme was activated by APMA for use in the assay. MMP-1 expressed in transfected HT-1080 cells was provided by Dr. Howard Welgus of Washington University, St. Louis, Mo. The enzyme was also activated using APMA and was then purified over a hydroxamic acid column.
as §2, §3

Another assay deals with T3, recombinant human MMP-13 (Homo sapiens, UniProt P45452).
T3 construct: made in house
The assay is described as above. The format is biochemical. As to conditions: for IC50: APMA-activated enzyme, MCA peptide substrate 4 μM, room temperature, pH 7.5. The protocol: as §1, §4, §2, §3

For assay [1], the system named is angiogenesis in the cornea of a mouse. Put plainly: In vivo angiogenesis assay (corneal micropocket assay). Set-up: species or system mouse (C57Bl/6). As to conditions: area of corneal neovascularization, bFGF pellet, dosed daily, scored at day five; exemplary dose 50 mg/kg bid, po. The protocol: The study of angiogenesis depends on a reliable and reproducible model for the stimulation and inhibition of a neovascular response. The corneal micropocket assay provides such a model of angiogenesis in the cornea of a mouse. See, A Model of Angiogenesis in the Mouse Cornea; Kenyon, B M, et al., Investigative Ophthalmology & Visual Science, Jul.
In this assay, uniformly sized Hydron™ pellets containing bFGF and sucralfate were prepared and surgically implanted into the stroma mouse cornea adjacent to the temporal limbus. The pellets were formed by making a suspension of 20 μL sterile saline containing […] recombinant bFGF, 10 mg of sucralfate and 10 μL of 12 percent Hydron™ in ethanol. The slurry was then deposited on a 10×10 mm piece of sterile nylon mesh. After drying, the nylon fibers of the mesh were separated to release the pellets.
The corneal pocket was made by anesthetizing a 7 week old C57Bl/6 female mouse, then proptosing the eye with a jeweler's forceps. Using a dissecting microscope, a central, intrastromal linear keratotomy of approximately 0.6 mm in length was performed with a #15 surgical blade, parallel to the insertion of the lateral rectus muscle. Using a modified cataract knife, a lamellar micropocket was dissected toward the temporal limbus. The pocket was extended to within 1.0 mm of the temporal limbus. A single pellet was placed on the corneal surface at the base of the pocket with a jeweler's forceps. The pellet was then advanced to the temporal end of the pocket. Antibiotic ointment was then applied to the eye.
Mice were dosed on a daily basis for the duration of the assay. Dosing of the animals was based on bioavailability and overall potency of the compound. An exemplary dose is 50 mg/kg bid, po. Neovascularization of the corneal stroma begins at about day three and was permitted to continue under the influence of the assayed compound until day five. At day five, the degree of angiogenic inhibition was scored by viewing the neovascular progression with a slit lamp microscope.
The mice were anesthetized and the studied eye was once again proptosed. The maximum vessel length of neovascularization, extending from the limbal vascular plexus toward the pellet was measured. In addition, the contiguous circumferential zone of neovascularization was measured as clock hours, where 30 degrees of arc equals one clock hour. The area of angiogenesis was calculated as follows. [formula]
The studied mice were thereafter compared to control mice and the difference in the area of neovascularization was recorded.

Sequence of MMP-8 (P22894 101-467, species assumed): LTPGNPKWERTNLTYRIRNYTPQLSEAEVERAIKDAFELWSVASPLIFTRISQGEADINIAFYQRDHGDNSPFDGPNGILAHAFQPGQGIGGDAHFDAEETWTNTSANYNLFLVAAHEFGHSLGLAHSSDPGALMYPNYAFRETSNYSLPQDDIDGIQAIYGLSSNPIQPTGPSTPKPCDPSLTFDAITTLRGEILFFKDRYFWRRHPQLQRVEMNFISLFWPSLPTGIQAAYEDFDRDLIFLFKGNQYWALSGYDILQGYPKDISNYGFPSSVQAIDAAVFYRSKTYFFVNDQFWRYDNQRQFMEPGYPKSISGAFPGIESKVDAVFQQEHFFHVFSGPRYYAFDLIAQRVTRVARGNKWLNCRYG
Sequence of MMP-3 (P08254 100-477, species assumed): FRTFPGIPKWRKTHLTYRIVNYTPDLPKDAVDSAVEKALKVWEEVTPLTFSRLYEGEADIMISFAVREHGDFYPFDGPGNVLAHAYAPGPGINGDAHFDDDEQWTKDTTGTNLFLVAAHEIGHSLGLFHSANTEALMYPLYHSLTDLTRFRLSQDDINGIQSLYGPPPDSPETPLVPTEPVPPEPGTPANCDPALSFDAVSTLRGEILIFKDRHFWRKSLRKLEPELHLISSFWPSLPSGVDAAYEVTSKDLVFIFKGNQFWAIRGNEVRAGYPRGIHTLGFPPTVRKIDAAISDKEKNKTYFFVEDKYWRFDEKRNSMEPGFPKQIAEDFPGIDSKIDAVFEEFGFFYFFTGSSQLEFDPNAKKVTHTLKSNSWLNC

The term IC50 denotes the concentration at which inhibition is half-maximal. For the compound `CC(O)(CS(=O)(=O)c1ccc(Oc2ccccc2)cc1)C(=O)NO` (stereo not shown) [Example 1, N,2-dihydroxy-2-methyl-3-[(4-phenoxyphenyl)sulfonyl]propanamide], the IC50 against MMP-8 turned out to be 2.5 nM; at MMP-9, 4.8 nM; on MMP-2 it was 0.5 nM; at MMP-3, 30 nM; on recombinant human MMP-1, 1100 nM; on recombinant human MMP-13, 1.1 nM. Further, in assay [1], the “Percentage of Control” value turned out to be 51.9%.
Take `C[C@@](O)(CS(=O)(=O)c1ccc(Oc2ccccc2)cc1)C(=O)NO` [Example 1A, (S)—N,2-dihydroxy-2-methyl-3-[(4-phenoxyphenyl)sulfonyl]propanamide]: the IC50 turned out to be 1.7 nM against MMP-9, 0.39 nM at MMP-2, 1010 nM on recombinant human MMP-1 and 0.75 nM on recombinant human MMP-13. For the same compound, on recombinant human MMP-13 (Example 1A versus Example 1B), the “ratio of inhibition of MMP-1 to inhibition of MMP-13, relative to the compound of opposite configuration” value was “about 2 times”. Besides, the “Percentage of Control” value in assay [1] is 62.7%.
Consider `C[C@](O)(CS(=O)(=O)c1ccc(Oc2ccccc2)cc1)C(=O)NO` [Example 1B, (R)—N,2-dihydroxy-2-methyl-3-[(4-phenoxyphenyl)sulfonyl]-propanamide], for which the IC50 on MMP-9 is 328 nM; at MMP-2 it was 11 nM; at recombinant human MMP-1, over 10000 nM; at recombinant human MMP-13, 21.5 nM. Also, in assay [1], the “Percentage of Control” value is on record as 49.3%.
On to `O=C(NO)C(O)(CO)CS(=O)(=O)c1ccc(Oc2ccccc2)cc1` (stereo not shown) [Example 2, N,2-dihydroxy-2-(hydroxymethyl)-3-[(4-phenoxyphenyl)-sulfonyl]propanamide], for which the IC50 on MMP-8 came out at 4.1 nM; at MMP-9 it was 7 nM; against MMP-2 it was 1 nM; against MMP-3 it was 44 nM; at recombinant human MMP-1, 470 nM; at recombinant human MMP-13, 1.2 nM. Also, the “Percentage of Control” value in assay [1] is 53.4%.
Consider `Cl.O=C(NO)C(O)(CN1CCOCC1)CS(=O)(=O)c1ccc(Oc2ccccc2)cc1` (stereo not drawn) [Example 3, N,α-dihydroxy-α-[[(4-phenoxyphenyl)sulfonyl]methyl]-4-morpholinepropanamide, monohydrochloride], for which the IC50 turned out to be 4 nM against MMP-8; 20 nM against MMP-9; 1 nM against MMP-2; 166 nM against MMP-3; 6000 nM at recombinant human MMP-1; 3 nM on recombinant human MMP-13. For the same compound, the “Percentage of Control” value in assay [1] came to 77.4%.
For `Cc1ccc(Oc2ccc(S(=O)(=O)CC(O)(CO)C(=O)NO)cc2)cc1C` (stereo not shown) [Example 4, 3-[[4-(3,4-dimethylphenoxy)phenyl]sulfonyl]-N,2-dihydroxy-2-(hydroxymethyl)propanamide], the IC50 on MMP-8 is 4.5 nM; at MMP-9, 12.4 nM; against MMP-2, 0.4 nM; at MMP-3, 48.5 nM; at recombinant human MMP-1, 9000 nM; at recombinant human MMP-13 it was 0.4 nM. Moreover, the “Percentage of Control” value in assay [1] was 65.2%.
Regarding `Cc1ccc(Oc2ccc(S(=O)(=O)CC(C)(O)C(=O)NO)cc2)cc1C` (stereo not shown) [Example 5, 3-[[4-(3,4-dimethylphenoxy)phenyl]sulfonyl]-N,2-dihydroxy-2-methylpropanamide], the IC50 at MMP-8 is 2.5 nM; against MMP-9 it was 3.4 nM; against MMP-2 it was 2.4 nM; against MMP-3, 26.8 nM; on recombinant human MMP-1 it was over 10000 nM; on recombinant human MMP-13 it was 1.3 nM. Besides, the “Percentage of Control” value in assay [1] is recorded as 57.8%.
With `Cc1ccc(Oc2ccc(S(=O)(=O)CC(O)(CN3CCOCC3)C(=O)NO)cc2)cc1C` (stereo not drawn) [Example 7, α-[[[4-(3,4-dimethylphenoxy)-phenyl]sulfonyl]methyl]-N-2-dihydroxy-4-morpholineproanamide], the IC50 is 4 nM against MMP-8; 13 nM at MMP-9; 2 nM against MMP-2; 51.8 nM against MMP-3; over 10000 nM on recombinant human MMP-1; 2.1 nM at recombinant human MMP-13.
As for `O=C(NO)C(O)CS(=O)(=O)c1ccc(Oc2ccccc2)cc1` (stereo not shown) [Example 9], the concentration for half-maximal inhibition (IC50) at MMP-9 was 16 nM; against MMP-2, 0.4 nM; at recombinant human MMP-1 it was 3000 nM; at recombinant human MMP-13 it was 0.2 nM. Besides, the “inhibitory activity against MMP-13 (in words)” value on recombinant human MMP-13 (discussion of Table 51) is on record as “excellent activity”. Moreover, in assay [1], the “Percentage of Control” value is given as 61.1%.
With `O=C(NO)[C@H](O)CS(=O)(=O)c1ccc(Oc2ccccc2)cc1` [Example 11, (S)—N,2-dihydroxy-3-[(4-phenoxyphenyl)sulfonyl]propanamide], the IC50 against MMP-9 turned out to be 66 nM; against MMP-2, 7 nM; on recombinant human MMP-1, 7000 nM; on recombinant human MMP-13, 5 nM.
For the compound `O=C(NO)C(O)CS(=O)(=O)c1ccc(Sc2ccccc2)cc1` (stereo not shown) [Example 12, N,2-dihydroxy-3-[[4-(phenylthio)phenyl]sulfonyl]propanamide], the IC50 at MMP-9 is 175 nM; on MMP-2, 2 nM; at recombinant human MMP-1 it was over 10000 nM; on recombinant human MMP-13, 3.7 nM.
`O=C(NO)C(O)(CO)CS(=O)(=O)c1ccc(Sc2ccccc2)cc1` (stereo not shown) [Example 13]: the IC50 on MMP-9 was 70 nM; against MMP-2, 2.3 nM; on recombinant human MMP-1 it was over 10000 nM; on recombinant human MMP-13 it was 5 nM.
With `CC(O)(CS(=O)(=O)c1ccc(NC(=O)c2ccccc2)cc1)C(=O)NO` (stereo not shown) [Example 16, N-[4-[[2-hydroxy-3-(hydroxyamino)-2-methyl-3-oxopropyl]-sulfonyl]phenyl]benzamide], the IC50 against MMP-9 is 1160 nM; against MMP-2 it was 0.8 nM; at recombinant human MMP-1 it was over 10000 nM; at recombinant human MMP-13 it was 110 nM. Further, the “Percentage of Control” value in assay [1] was 41.6%.
`O=C(Nc1ccc(S(=O)(=O)CC(O)C(=O)NO)cc1)c1ccccc1` (stereo not shown) [Example 23, N-[4-[[2-hydroxy-3-(hydroxyamino)-3-oxopropyl]sulfonyl]phenyl]benzamide]: the 50% inhibitory concentration (IC50) at MMP-9 is 1330 nM; on MMP-2, 2.8 nM; at recombinant human MMP-1, over 10000 nM; at recombinant human MMP-13, 220 nM.
